Patent US11155544B2, “Heterocycle comprising tyrosine kinase inhibitors” (Principia Biopharma Inc., priority 2015, dated 2021)

Assays:
human recombinant BTK = human recombinant BTK (Homo sapiens (Human), UniProt Q06187); assay: BTK Enzymatic Activity Assay (Caliper-based kinase assay); type: biochemical; conditions: human recombinant BTK (0.5 nM), ATP (16 μM), peptide substrate (1 μM), room temperature for 3 h
Protocol: A Caliper-based kinase assay (Caliper Life Sciences, Hopkinton, Mass.) was used to measure inhibition of BTK kinase activity of a compound of the present disclosure. Serial dilutions of test compounds were incubated with human recombinant BTK (0.5 nM), ATP (16 μM) and a phosphoacceptor peptide substrate FAM-GEEPLYWSFPAKKK-NH2 (1 μM) at room temperature for 3 h. The reaction was then terminated with EDTA, final concentration 20 mM and the phosphorylated reaction product was quantified on a Caliper Desktop Profiler (Caliper LabChip 3000). Percent inhibition was calculated for each compound dilution and the concentration that produced 50% inhibition was calculated. This value is presented as the IC50.

CD69 expression = assay: Blockade of CD69 Expression in Human Whole Blood Samples; type: cell-based; conditions: 30 minutes pre-incubation, activation with anti-IgM, cells gated on CD20, CD69 by FACS
Protocol: Activation of the B cell receptor leads to increased BTK activity, calcium mobilization and B cell activation (see Honigberg L. A., et. al., Proc Natl Acad Sci USA. 107:13075-80. 2010). […] CD69 was expressed following B cell activation as a measure of BTK activity in whole blood. Aliquots of whole blood were pre-incubated with serial dilutions of test compound for 30 minutes followed by activation with anti-IgM (goat Fab′ 2, 50 μg/ml). Samples were incubated overnight at 37° C. and then stained with PE labeled anti-CD20 and APC labeled anti-CD69 (BD Pharmingen) for 30 minutes according to the manufacturer's directions. Whole blood was then lysed and cells gated on CD20 expression were quantified for CD 69 expression by FACS. The percent inhibition was calculated based on a DMSO control for no inhibition and plotted as a function of test compound concentration from which an IC50 value was calculated.

Chain of human recombinant BTK (Q06187 whole entry): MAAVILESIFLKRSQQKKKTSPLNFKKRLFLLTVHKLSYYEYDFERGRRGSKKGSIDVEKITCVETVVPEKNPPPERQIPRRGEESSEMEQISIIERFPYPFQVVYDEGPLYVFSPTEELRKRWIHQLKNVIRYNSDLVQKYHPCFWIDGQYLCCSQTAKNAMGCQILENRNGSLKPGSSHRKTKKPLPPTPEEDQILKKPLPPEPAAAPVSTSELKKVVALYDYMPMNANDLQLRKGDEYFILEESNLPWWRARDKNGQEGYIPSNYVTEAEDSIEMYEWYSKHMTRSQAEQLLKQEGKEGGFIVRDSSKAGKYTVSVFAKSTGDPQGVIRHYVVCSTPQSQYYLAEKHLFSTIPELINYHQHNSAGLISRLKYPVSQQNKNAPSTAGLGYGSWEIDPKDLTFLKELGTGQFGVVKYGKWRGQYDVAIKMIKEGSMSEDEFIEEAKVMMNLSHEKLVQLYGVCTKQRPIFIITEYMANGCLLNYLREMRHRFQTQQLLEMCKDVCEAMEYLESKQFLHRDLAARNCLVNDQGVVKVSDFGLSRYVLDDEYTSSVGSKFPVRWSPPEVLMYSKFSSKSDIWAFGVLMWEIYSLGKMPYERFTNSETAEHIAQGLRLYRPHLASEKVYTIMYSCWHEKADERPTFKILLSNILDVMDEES

Row | Compound | IC50 (human recombinant BTK) [nM] | IC50 (CD69 expression) [nM]
1 | CN1CCN(C(C)(C)C=C(C#N)C(=O)N2CCC[C@H]2Cn2nc(-c3ccc(Oc4ccccc4)cc3F)c3c(N)nccc32)CC1 [Compound 12, (S)-2-(2-((4-amino-3-(2-fluoro-4-phenoxyphenyl)-1H-pyrazolo[4,3-c]pyridin-1-yl)methyl)pyrrolidine-1-carbonyl)-4-methyl-4-(4-methylpiperazin-1-yl)pent-2-enenitrile] | 14 | 874
2 | CC(C)(C=C(C#N)C(=O)N1CCC[C@@H](n2nc(-c3ccc(Oc4ccccc4)c(F)c3)c3c(N)nccc32)C1)N1CCN(C2COC2)CC1 [Compound 26, (R)-2-(3-(4-amino-3-(3-fluoro-4-phenoxyphenyl)-1H-pyrazolo[4,3-c]pyridin-1-yl)piperidine-1-carbonyl)-4-methyl-4-(4-(oxetan-3-yl)piperazin-1-yl)pent-2-enenitrile] | 3 | 367
3 | CC(C)(/C=C(\C#N)C(=O)N1CCC[C@H]1Cc1nc(-c2ccc(Oc3ccccc3)cc2F)c2c(N)nccn12)N1CCOCC1 [Compound 17, (S)-2-(2-((8-amino-1-(2-fluoro-4-phenoxyphenyl)imidazo[1,5-a]pyrazin-3-yl)methyl)pyrrolidine-1-carbonyl)-4-methyl-4-morpholinopent-2-enenitrile] | 2.9 | 165
4 | (R)-2-(3-(4-amino-3-(2-methyl-4-phenoxyphenyl)-1H-pyrazolo[4,3-c]pyridin-1-yl)piperidine-1-carbonyl)-4-methyl-4-(4-(oxetan-3-yl)piperazin-1-yl)pent-2-enenitrile [Compound 25] | 4.4 | 430
5 | CC(C)(C)C=C(C#N)C(=O)N1CCC[C@@H](n2nc(-c3ccc(Oc4ccccc4)cc3F)c3c(N)nccc32)C1 [Compound 9, (R)-2-(3-(4-amino-3-(2-fluoro-4-phenoxyphenyl)-1H-pyrazolo[4,3-c]pyridin-1-yl)piperidine-1-carbonyl)-4,4-dimethylpent-2-enenitrile] | 8.6 | 526
6 | CC(C)(C=C(C#N)C(=O)N1CCC[C@@H](n2nc(-c3ccc(Oc4ccccc4)cc3F)c3c(N)nccc32)C1)N1CCNC(=O)C1 [Compound 24, (R)-2-(3-(4-amino-3-(2-fluoro-4-phenoxyphenyl)-1H-pyrazolo[4,3-c]pyridin-1-yl)piperidine-1-carbonyl)-4-methyl-4-(3-oxopiperazin-1-yl)pent-2-enenitrile] | 1.7 | 577
7 | CN1CCN(C(C)(C)/C=C(\C#N)C(=O)N2CCC[C@@H](n3nc(-c4ccc(Oc5ccccc5)cc4F)c4c(N)nccc43)C2)CC1 [Compound 10, (R)-2-(3-(4-amino-3-(2-fluoro-4-phenoxyphenyl)-1H-pyrazolo[4,3-c]pyridin-1-yl)piperidine-1-carbonyl)-4-methyl-4-(4-methylpiperazin-1-yl)pent-2-enenitrile] | 1.9 | 289

Second part, the compound after the results:

Row | IC50 (human recombinant BTK) [nM] | IC50 (CD69 expression) [nM] | Compound
8 | 2.5 | 511 | CC(C)(C=C(C#N)C(=O)N1CCC[C@H]1Cn1nc(-c2ccc(Oc3ccccc3)cc2F)c2c(N)nccc21)N1CCOCC1 [Compound 22, (S)-2-(2-((4-amino-3-(2-fluoro-4-phenoxyphenyl)-1H-pyrazolo[4,3-c]pyridin-1-yl)methyl)pyrrolidine-1-carbonyl)-4-methyl-4-morpholinopent-2-enenitrile]
9 | 1.6 | 538 | CC(C)(C=C(C#N)C(=O)N1CCC[C@@H](n2nc(-c3ccc(Oc4ccccc4)cc3F)c3c(N)nccc32)C1)C1CCN(C2COC2)CC1 [Compound 23, (R)-2-(3-(4-amino-3-(2-fluoro-4-phenoxyphenyl)-1H-pyrazolo[4,3-c]pyridin-1-yl)piperidine-1-carbonyl)-4-methyl-4-(1-(oxetan-3-yl)piperidin-4-yl)pent-2-enenitrile]
10 | – | 181 | CN(C1COC1)C(C)(C)C=C(C#N)C(=O)N1CCC[C@@H](n2nc(-c3ccc(Oc4ccccc4)cc3F)c3c(N)nccc32)C1 [Compound 14, (R)-2-(3-(4-amino-3-(2-fluoro-4-phenoxyphenyl)-1H-pyrazolo[4,3-c]pyridin-1-yl)piperidine-1-carbonyl)-4-methyl-4-(methyl(oxetan-3-yl)amino)pent-2-enenitrile]
11 | 2 | 200 | CC(C)(/C=C(\C#N)C(=O)N1CCC[C@@H](n2nc(-c3ccc(Oc4ccccc4)cc3F)c3c(N)nccc32)C1)N1CCOCC1 [Compound 11, (R)-2-(3-(4-amino-3-(2-fluoro-4-phenoxyphenyl)-1H-pyrazolo[4,3-c]pyridin-1-yl)piperidine-1-carbonyl)-4-methyl-4-morpholinopent-2-enenitrile]
12 | – | 109 | CC(C)(C=C(C#N)C(=O)N1CCC[C@@H](n2nc(-c3ccc(Oc4ccccc4)cc3F)c3c(N)nccc32)C1)N1CCN(C2COC2)CC1 [Compound 1, (R)-2-(3-(4-amino-3-(2-fluoro-4-phenoxyphenyl)-1H-pyrazolo[4,3-c]pyridin-1-yl)piperidine-1-carbonyl)-4-methyl-4-(4-(oxetan-3-yl)piperazin-1-yl)pent-2-enenitrile]
13 | – | 114 | CC(C)(C=C(C#N)C(=O)N1CCC[C@@H](n2nc(-c3ccc(Oc4ccccc4)cc3F)c3c(N)nccc32)C1)N1CCN(C2(C)COC2)CC1 [Compound 7, (R)-2-(3-(4-amino-3-(2-fluoro-4-phenoxyphenyl)-1H-pyrazolo[4,3-c]pyridin-1-yl)piperidine-1-carbonyl)-4-methyl-4-(4-(3-methyloxetan-3-yl)piperazin-1-yl)pent-2-enenitrile]
14 | 4.3 | 130 | CN(C1COC1)C(C)(C)C=C(C#N)C(=O)N1CCC[C@H]1Cc1nc(-c2ccc(Oc3ccccc3)cc2F)c2c(N)nccn12 [Compound 18, (S)-2-(2-((8-amino-1-(2-fluoro-4-phenoxyphenyl)imidazo[1,5-a]pyrazin-3-yl)methyl)pyrrolidine-1-carbonyl)-4-methyl-4-(methyl(oxetan-3-yl)amino)pent-2-enenitrile]
15 | 23.5 | 178 | CC(C)(C=C(C#N)C(=O)N1CCC[C@H]1Cc1nc(-c2ccc(Oc3ccccc3)cc2F)c2c(N)nccn12)N1CCN(C2COC2)CC1 [Compound 19, (S)-2-(2-((8-amino-1-(2-fluoro-4-phenoxyphenyl)imidazo[1,5-a]pyrazin-3-yl)methyl)pyrrolidine-1-carbonyl)-4-methyl-4-(4-(oxetan-3-yl)piperazin-1-yl)pent-2-enenitrile]
16 | 1.7 | 931 | CC(C)(C)C=C(C#N)C(=O)N1CCC[C@H]1Cc1nc(-c2ccc(Oc3ccccc3)cc2F)c2c(N)nccn12 [Compound 16, (S)-2-(2-((8-amino-1-(2-fluoro-4-phenoxyphenyl)imidazo[1,5-a]pyrazin-3-yl)methyl)pyrrolidine-1-carbonyl)-4,4-dimethylpent-2-enenitrile]
17 | 7.4 | 1290 | CC(C)(C=C(C#N)C(=O)N1CCC[C@H]1Cn1nc(-c2ccc(Oc3ccccc3)cc2F)c2c(N)nccc21)N1CCN(C2COC2)CC1 [Compound 13, (S)-2-(2-((4-amino-3-(2-fluoro-4-phenoxyphenyl)-1H-pyrazolo[4,3-c]pyridin-1-yl)methyl)pyrrolidine-1-carbonyl)-4-methyl-4-(4-(oxetan-3-yl)piperazin-1-yl)pent-2-enenitrile]
